Experimental data: paper PMC10322781 (Archives of Toxicology, 2023)
Several values for one entry are separate records, joined by “and”; a condition that tells them apart may be missing. Identical values can stand only once.

What was measured:
[1] = molecular target: CYP3A4 (Homo sapiens, UniProt P08684); settings: microsomes
Experimental: For this purpose, rifamycins were tested between 0.5 to 50 µM. […] A reaction mixture without CYP3A4 was incubated as negative control. Luminescence signals were normalized to the untreated cell control.

[2] = tested on: LS180 cells; type: in vitro ADME; settings: human
Experimental: The UPLC-MS/MS system consisted of a triple stage quadrupole mass spectrometer (Waters Xevo TQ-S, Milford, MA, USA) and an Acquity Classic UPLC® (Waters). Mass spectrometric analysis was performed by selective reaction monitoring using positive electrospray ionization. […] Because of their considerable molecular size, rifamycins were chromatographically separated on a Waters Peptide BEH C18 Column (300 Å, 1.7 μm, 2.1 mm × 50 mm) to foster optimal mass transfer kinetics. The mobile phase was composed of H20/ACN (95/5, v/v) + 0.1% FA (eluent A) and ACN + 0.1% FA (eluent B). […] The total run time was 4 min, and the column was heated to 60 °C. The injection volume was set to 20 μL with a flow rate of 0.5 mL/min. A pellet of untreated LS180 cells (500,000 cells/sample) was used for calibration standards and QC standard. […] Subsequently, proteins were precipitated with 110 μL ACN (uptake samples) or 100 μL ACN (calibration standards and QC standards). […] To determine intracellular rifamycin concentrations, measured compound concentrations were normalized to the total pellet volume. This was achieved by multiplying the measured mean cellular volume of a LS180 cell (CASY cell counter, Schärfe System, Reutlingen, Germany) by the mean cell number of four wells of an identically prepared and treated cell culture plate.

[3] = tested on: CYP3A4
Experimental: (§1) A random hexamer primer was used according to the manufacturer’s instructions. […] Experiments were performed in four independent biological replicates with technical duplicates (PCR runs) for each concentration.

[4] = cited from earlier work
[5] = tested on: CYP3A4; remark: listed apart in the source
Experimental: To determine CYP3A4 activity in LS180 cells after rifamycin treatment, 20,000 cells per well were seeded into 96-well plates and allowed to grow for 3 days until 70% confluency. […] Cells were washed twice with PBS and then pre-incubated with PBS + 2% FCS for 30 min at 37 °C. PBS was removed and replaced by 50 µL of 3 µM luciferin-IPA (selective CYP3A4 substrate) and incubated for 60 min at 37 °C. After incubation, 25 µL supernatant from each well was transferred to a white 96-well plate and 25 µL detection reagent (containing luciferase) was added. Cells were subsequently incubated for 20 min at room temperature. […] CYP3A4 activity was normalized to untreated controls.

[6] = tested on: mdr1a/b; assay: Pgp inhibition calcein assay in P388/dx cells; type: cell-based, murine; settings: for Emax Pgp inhibition: calcein assay, fold compared to untreated cells; for IC50: calcein efflux
Experimental: To investigate the potential Pgp inhibition by the rifamycins, the murine monocytic leukaemia cell line P388/dx (overexpressing the murine Pgp counterpart mdr1a/b (Boesch et al. [1991])) and the corresponding parental cell line P388 were used (kindly provided by Dr. D. Ballinari; Pharmacia & Upjohn, Milan, Italy). Cells were cultured under standard conditions with RPMI 1640 cell culture medium supplemented with FCS 10%, 2 mM glutamine, […] β-mercaptoethanol, 100 U/mL penicillin, and 100 µg/mL streptomycin sulphate. The culture medium of the P388/dx cell line was additionally supplemented with doxorubicin (final concentration: 0.45 µM) to maintain mdr1a/b expression. One day before the experiments, P388/dx cells were set to doxorubicin-free medium.
Pgp activity was determined using a calcein assay as described previously (Fröhlich et al. [2004]) with zosuquidar (10 µM) as a positive control.

[7] = tested on: P388 cells; assay: Calcein assay in parental P388 cells; type: cell-based, murine
[8] = set-up: method as in Zhang et al. [2008]; settings: 300 mg rifabutin; ref Zhang et al. [2008]; cited from earlier work
[9] = tested on: ABCB1; assay: ABCB1 mRNA expression in LS180 cells (real-time RT-PCR); type: cell-based, human; settings: for EC50 at 24 h / EC50 at 96 h / EC50 at 144 h: human, LS180 cells
Experimental: as §1

[10] = tested on: Pgp; assay: Induction of Pgp activity in LS180 cells (rhodamine123 efflux, flow cytometry); type: cell-based, human; settings: LS180, 144 h exposure; for Emax Pgp activity (activation): fold compared to untreated cells; for EC50 at 144 h: human, LS180 cells, probe rhodamine123 (0.4 µM), with zosuquidar (10 µM), rhodamine123 efflux, read-out: EC50 Pgp activity (activation)
Experimental: To assess the induction of Pgp activity, 200,000 LS180 cells per well were seeded in a 6-well plate, cultured for 3 days and subsequently exposed to rifamycins for 144 h. After treatment, cells were harvested and subjected to the rhodamine efflux assay as described previously (Theile et al. [2013]; Weiss et al. [2008]). Briefly, cells were incubated with the fluorescent Pgp substrate rhodamine123 (0.4 µM) on a rotary shaker for 30 min at 37 °C under protection from light. Subsequently, cells were incubated with the selective Pgp inhibitor zosuquidar (10 µM) for 50 min at 37 °C on a rotary shaker. Medium without zosuquidar was used as a negative control. All washing steps were performed with ice-cold PBS at 4 °C. Intracellular rhodamine123 fluorescence was determined using a flow cytometer (MACSQuant analyzer 10, Miltenyi Biotec, Bergisch Gladbach, Germany). Thirty thousand cells were used for the analysis. For data evaluation, the ratio of zosuquidar-inhibited samples to non-inhibited samples of the rifamycin experiment was calculated and normalized to the ratio of untreated cell controls (no rifamycin treatment).

[11] = LS180, 24 h, fold induction compared to untreated cells
[12] = LS180, 96 h, fold induction compared to untreated cells
[13] = LS180, 144 h, fold induction compared to untreated cells
[14] = LS180, 24 h, extracellular concentration
[15] = LS180, 24 h (24*), intracellular concentrations

Chain of CYP3A4 (Homo sapiens, UniProt P08684) (P08684 whole entry): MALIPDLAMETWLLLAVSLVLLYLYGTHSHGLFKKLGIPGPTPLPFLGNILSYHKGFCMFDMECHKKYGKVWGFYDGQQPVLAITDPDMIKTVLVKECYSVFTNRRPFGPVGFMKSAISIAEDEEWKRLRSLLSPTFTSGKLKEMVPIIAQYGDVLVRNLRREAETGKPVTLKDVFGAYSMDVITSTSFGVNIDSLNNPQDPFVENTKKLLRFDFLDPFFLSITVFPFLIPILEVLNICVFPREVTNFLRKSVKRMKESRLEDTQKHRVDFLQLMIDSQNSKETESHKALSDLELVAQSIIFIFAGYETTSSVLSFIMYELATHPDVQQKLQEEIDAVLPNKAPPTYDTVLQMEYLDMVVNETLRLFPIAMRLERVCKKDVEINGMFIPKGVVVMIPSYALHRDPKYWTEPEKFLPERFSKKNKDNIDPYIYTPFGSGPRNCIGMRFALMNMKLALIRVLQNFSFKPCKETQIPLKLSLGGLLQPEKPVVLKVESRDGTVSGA

Structure (SMILES)	Emax Pgp inhibition [6] [fold]	IC50 [6] [nM]	intracellular calcein fluorescence [7]	Emax ABCB1 mRNA expression [9, 11] [fold]	Emax ABCB1 mRNA expression [9, 12] [fold]	Emax ABCB1 mRNA expression [9, 13] [fold]	EC50 at 24 h [9, 14] [nM]	EC50 at 96 h ([9]; LS180, 96 h) [nM]	EC50 at 144 h ([9]; LS180, 144 h) [nM]	Emax Pgp activity (activation) [10] [fold]	EC50 at 144 h [10] [nM]	also measured
CN(C)C(=N)N=C(N)N [metformin]	–	–	–	–	–	–	–	–	–	–	–	effect on CYP3A4 activity [1]: no effect
CO[C@H]1/C=C/O[C@@]2(C)Oc3c(C)c(O)c4c(c3C2=O)C2=NC3(CCN(CC(C)C)CC3)NC2=C(NC(=O)/C(C)=C\C=C\[C@H](C)[C@H](O)[C@@H](C)[C@@H](O)[C@@H](C)[C@H](OC(C)=O)[C@@H]1C)C4=O [Rifabutin]	4.9 ± 1.3	320 ± 100	remained unchanged	1.4 ± 0.024	2.8 ± 0.16	4.5 ± 0.71	1100 ± 27	1800 ± 1100	1500 ± 720	2.8 ± 0.48	1100 ± 160	time to reach intracellular concentration equilibrium [2]: 6 h; molar metabolite-to-parent ratio (25-O-deacetyl metabolite) ([2]; 10 µM): 0.002 to 0.006; increase of CYP3A4 mRNA levels [3]: twofold; effect on dabigatran etexilate kinetics ([4]; 300 mg rifabutin, ref Lutz et al., CPT [2018b]): not affected; reduction of bioavailability of doravirine ([4]; repeated administration of 300 mg rifabutin, ref Khalilieh et al. [2018]): 50%; reduction of bioavailability of indinavir ([4]; repeated administration of 300 mg rifabutin, ref Kraft et al. [2004]): 34%; concentration dependence of CYP3A4 activity [5]: no concentration dependence; increase in CYP3A4 activity after exposure [5]: no detectable increase; IC50 ([6]; listed as rifabutin): 300 nM; lowering of CYP3A4 activity ([1]; human): approx. 80%; expected drug concentration in the gut lumen [8]: approx. 1.4 mM
CO[C@H]1/C=C/O[C@@]2(C)Oc3c(C)c(O)c4c(O)c(c(/C=N/N5CCN(C)CC5)c(O)c4c3C2=O)NC(=O)/C(C)=C\C=C\[C@H](C)[C@H](O)[C@@H](C)[C@@H](O)[C@@H](C)[C@H](OC(C)=O)[C@@H]1C [Rifampicin]	4.3 ± 0.53	13000 ± 4100	remained unchanged	2.6 ± 0.068	5.1 ± 0.12	7.0 ± 0.53	8600 ± 470	1100 ± 56	1000 ± 65	3.2 ± 0.37	1000 ± 1.4	lowering of exposure to indinavir ([4]; repetitive administration of 600 mg standard dose of rifampicin, ref Avihingsanon et al. [2012]): approx. 90%; lowering of exposure to doravirine ([4]; repetitive administration of 600 mg standard dose of rifampicin, ref Yee et al. [2017]): approx. 90%; IC50 ([6]; listed as rifampicin): 12900 nM; EC50 [9, 15]: 37000 ± 2000 nM; Emax ABCB1 mRNA expression ([9]; LS180, 24 h (24*), intracellular concentrations, compared to untreated): 2.6 fold and 2.6 ± 0.068 fold; EC50 at 24 h [9, 15]: 37400 nM
